Legend:
[1] = tested on: human Capan-1 pancreatic tumor cells; assay: Capan-1 pancreatic xenograft antitumor activity; format: in vivo, SCID-Rag2M mice; conditions: i.v., Q7D × 3, tumors to reach 500 mg
Protocol: (§1) Briefly, in order to perform tumor studies on mice, animals are inoculated with tumor cells which are then allowed to grow to sufficient size. Using a 28 g needle, mice are inoculated subcutaneously with 1-2×10^6 tumor cells on day 0 (one inoculum/mouse) in a volume of 50 μL.
(§2) When tumors reach a defined size of approximately 100 mm^3 to 200 mm^3, either one-day prior to treatment or on the day of treatment, all tumors are measured. After selecting the appropriate tumor sizes, excluding tumors too small or large, the tumors are randomly distributed (n=6) and the mean tumor volume of the groups are determined. Mice are organized into appropriate treatment groups consisting of control and treatment groups such as for example, saline control, liposome control, positive control and various dilutions of test articles.
(§3) Mice are injected intravenously with the required volume of sample to administer the prescribed dose (10 μL/g as indicated) to the animals based on individual mouse weights.
(§4) Tumor growth measurements are monitored using vernier calipers beginning on the day of treatment. Tumor length measurements (mm) are made from the longest axis and width measurements (mm) will be perpendicular to this axis. From the length and width measurements tumor volumes (cm^3) are calculated according to the equation (L×W^2/2. Animal weights and in-life observations are collected at the time of tumor measurement.
(§5) In particular, signs of ill health are based on body weight loss, change in appetite, rough coat, lack of grooming, behavioral changes such as altered gait, lethargy and gross manifestations of stress. Should signs of severe toxicity or tumor-related illness be seen, the animals are euthanized (CO2 asphyxiation) and a necropsy is performed to assess other signs of toxicity. Moribund animals are terminated for humane reasons and the decision to terminate is at the discretion of the Study Director/Manager and the Animal Care Technician. Any and all of these findings will be recorded as raw data and the time of death will be logged as the following day.
(§6) Xenograft tumors were allowed to grow until they measured to be approximately 150 mg (150 mm^3) in size, and the murine tumors were grown to approximately 100 mg (100 mm^3), at which time the indicated formulations were injected. Tumor growth was determined by direct caliper measurements. […] Antitumor activity was quantitated by calculating the percent tumor growth delay and log cell kill. Percent tumor growth delay is defined as the time in days taken for treated tumors to reach the specified evaluation size as a percent of control (T−C/C×100) where T is the treatment tumors and C is the control tumors in days. […] A log cell kill of +6 indicates a 99.9999% reduction in the cell population.

[2] = tested on: human HT-29 colon adenocarcinoma; assay: HT-29 colorectal xenograft antitumor activity; conditions: i.v., Q7D × 3, tumors to reach 400 mg
Protocol: as §1, §2, §3, §4, §5, §6

SMILES: O=c1[nH]c(=O)n([C@H]2C[C@H](O)[C@@H](CO)O2)cc1F [Free Flox, fluorodeoxyuridine]
- Log cell kill ([1]; dose 250 mg/kg): 0.43
- Percent tumor growth delay [(T − C ÷ C) × 100] ([1]; dose 250 mg/kg): 23%
- Tumor growth delay ([1]; dose 250 mg/kg): 10 days
- Log cell kill ([2]; dose 250 mg/kg): 0.09
- Percent tumor growth delay [(T − C ÷ C) × 100] ([2]; dose 250 mg/kg): 8%
- Tumor growth delay ([2]; dose 250 mg/kg): 2 days
- Percent tumor growth delay [(T − C ÷ C) × 100] ([2]; dose 250 mg/kg, listed as free FUDR): 8%

SMILES: CCc1c2c(nc3ccc(OC(=O)N4CCC(N5CCCCC5)CC4)cc13)-c1cc3c(c(=O)n1C2)COC(=O)[C@]3(O)CC [Free Irino, irinotecan]
- Log cell kill ([1]; dose 100 mg/kg): 0.65
- Percent tumor growth delay [(T − C ÷ C) × 100] ([1]; dose 100 mg/kg): 35%
- Tumor growth delay ([1]; dose 100 mg/kg): 15 days
- Log cell kill ([2]; dose 100 mg/kg): 0.09
- Percent tumor growth delay [(T − C ÷ C) × 100] ([2]; dose 100 mg/kg): 8%
- Tumor growth delay ([2]; dose 100 mg/kg): 2 days
- Percent tumor growth delay [(T − C ÷ C) × 100] ([2]; dose 100 mg/kg, listed as free CPT-11, 100 mg/kg): 8%

— patent US20040265368A1, “Combination compositions of camptothecins and fluoropyrimidines” (priority 2003, published 2004)
